Data published in US6670459B2, “Process for the isolation of novel oligospirostanoside” (Zandu Pharmaceutical Works Ltd., priority 2002, dated 2003).
Read-outs that look alike come from different tables or passages of the source. Marks after values point to notes of the source that are not given here.

Tests used:
immunecompromised mice [1] = assay type: in vivo
Procedure: (§1) 0 day: sensitization with 0.2 ml of 5×10^9 SRBC/ml i.p.
4th day: challenged with 20 μl of 5×10^9 SRBC/ml into right hind footpad for DTH reaction only.
(§2) SRBC: Sheep red blood cell.
(§3) 5th day: measurement of foot thickness/Haemagglutination antibody titre

immunecompromised mice [2] = assay type: in vivo; remark: listed apart in the source
Procedure: as §1, §2, §3

[3] = immunecompromised mice, 0.0006 mg/kg p.o., days 0-4, day 5, n=12
[4] = immunecompromised mice, 0.0125 mg/kg p.o., days 0-4, day 5, n=12
[5] = oral, immunecompromised experimental animals, dose levels 0.0062-0.0125 mg Kg^-1
[6] = immunecompromised mice, 2.5 mg/kg p.o., days 0-4, day 5, n=12
[7] = mice, 250 mg/kg p.o., day 5, n=12

C[C@H]1CC[C@@]2(OC1)O[C@H]1C[C@H]3[C@@H]4CC[C@@H]5C[C@@H](O[C@@H]6O[C@H](CO)[C@@H](O[C@@H]7O[C@@H](C)[C@H](O)[C@@H](O)[C@H]7O[C@@H]7O[C@@H](C)[C@H](O)[C@@H](O)[C@H]7O)[C@H](O)[C@H]6O)CC[C@]5(C)[C@H]4CC[C@]3(C)[C@H]1[C@@H]2C [AR-Iv, 3-0-[α-L-rhamnopyranosyl-(1→2)-α-L-rhamnopyranosyl-(1→4)-0-β-D-glucopyranosyl]-25(S)-5β-spirostan-3β-ol]
DTH % change compared to control (immunecompromised mice [1]; [3]): 78*** % | DTH mean ± S.E. (immunecompromised mice [1]; [3]): 0.80 ± 0.14 | DTH % change compared to control (immunecompromised mice [1]; [4]): 102*** % | DTH mean ± S.E. (immunecompromised mice [1]; [4]): 0.91 ± 0.42 | enhanced cell-mediated immune response (immunecompromised mice [1]; [5]): 77.77-102.22% | Antibody titre % change compared to control (immunecompromised mice [2]; [3]): 56** % | Antibody titre mean ± S.E. (immunecompromised mice [2]; [3]): 5.60 ± 0.33 | Antibody titre % change compared to control (immunecompromised mice [2]; [4]): 78*** % | Antibody titre mean ± S.E. (immunecompromised mice [2]; [4]): 6.41 ± 0.16 | potentiated antibody synthesis (immunecompromised mice [2]; [5]): 55.55-69.44%

c1ccc([C@H]2CN3CCSC3=N2)cc1 [LEV, Levamisole, reference compound]
DTH % change compared to control (immunecompromised mice [1]; [6]): 140*** % | DTH mean ± S.E. (immunecompromised mice [1]; [6]): 1.08 ± 0.14 | Antibody titre % change compared to control (immunecompromised mice [2]; [6]): 89*** % | Antibody titre mean ± S.E. (immunecompromised mice [2]; [6]): 6.80 ± 0.30

Cyclodextrin [reference compound]
DTH % change compared to control (immunecompromised mice [1]; [7]): 23* % | DTH mean ± S.E. (immunecompromised mice [1]; [7]): 0.45 ± 0.24 | Antibody titre % change compared to control (immunecompromised mice [2]; [7]): 45* % | Antibody titre mean ± S.E. (immunecompromised mice [2]; [7]): 3.60 ± 0.33
